# Data from ChEMBL document CHEMBL5634143, “Development of teixobactin analogues containing hydrophobic, non-proteogenic amino acids that are highly potent against multidrug-resistant bacteria and biofilms” (Eur J Med Chem, 2023).
# The source made the active and inactive calls. The rule behind the calls is not given here.
# Key:
# [1] = test system: Staphylococcus epidermidis; assay: Antibacterial activity against Staphylococcus epidermidis 12228 assessed as inhibition of bacterial growth; assay type: functional
# Bacillus cereus = assay: Antibacterial activity against Bacillus cereus ATCC 11788 assessed as inhibition of bacterial growth; assay type: functional
# Bacillus subtilis = assay: Antibacterial activity against Bacillus subtilis ATCC 6633 assessed as inhibition of bacterial growth; assay type: functional
# Staphylococcus aureus [2] = assay: Antibacterial activity against methicilin-resistant Staphylococcus aureus ATCC 700699 assessed as inhibition of bacterial growth; assay type: functional
# [3] = test system: Staphylococcus saprophyticus; assay: Antibacterial activity against Staphylococcus saprophyticus ATCC BAA 750 assessed as inhibition of bacterial growth; assay type: functional
# Pseudomonas aeruginosa [4] = assay: Antibacterial activity against Pseudomonas aeruginosa DSMZ 1117 assessed as inhibition of bacterial growth; assay type: functional
# Enterococcus faecium [5] = assay: Antibacterial activity against Vancomycin-resistant Enterococcus […] ATCC 29212 assessed as inhibition of bacterial growth; assay type: functional; conditions: Enterococcus faecalis
# Cell membrane [6] = assay: Induction of cytoplasmic membrane depolarization in methicilin-resistant Staphylococcus aureus 21455 at 16 times MIC by DiSC3(5) dye-based fluorescence assay
# Enterococcus faecium [7] = assay: Antibacterial activity against Vancomycin-resistant Enterococcus […] ATCC 700802 assessed as inhibition of bacterial growth; assay type: functional
# Cell membrane [8] = assay: Induction of cell membrane […] in methicilin-resistant Staphylococcus aureus 21455 assessed as increase in fluorescence intensity at 16 times MIC by SYTOX green dye based fluorescence analysis; assay type: cell membranes
# Staphylococcus aureus [9] = assay: Antibacterial activity against methicilin-resistant Staphylococcus aureus 21455 assessed as inhibition of bacterial growth; assay type: functional
# Staphylococcus aureus [10] = assay: Antibacterial activity against methicilin-resistant Staphylococcus aureus 1003 assessed as inhibition of bacterial growth; assay type: functional
# [11] = Hemolytic activity in rabbit erythrocytes assessed as hemolysis at 512 microg/ml relative to control; assay type: toxicity, cell-based, Oryctolagus cuniculus, Erythrocyte; conditions: at 512 µg/mL, read-out: Activity
# Staphylococcus aureus [12] = assay: Bactericidal activity against methicilin-resistant Staphylococcus aureus 21455 assessed as inhibition of bacterial growth by time-kill kinetic assay; assay type: functional, organism-based
# [13] = test system: Staphylococcus saprophyticus; assay: Antibacterial activity against Staphylococcus saprophyticus ATCC 49907 assessed as inhibition of bacterial growth; assay type: functional
# Enterococcus faecium [14] = assay: Antibacterial activity against Vancomycin-resistant Enterococcus faecium 1014 assessed as inhibition of bacterial growth; assay type: functional
# Cell membrane [15] = assay: Induction of cell membrane […] in methicilin-resistant Staphylococcus aureus 21455 assessed as increase in fluorescence intensity at 8 times MIC by SYTOX green dye based fluorescence analysis; assay type: cell membranes
# [16] = test system: Staphylococcus epidermidis; assay: Antibacterial activity against Staphylococcus epidermidis 1457 assessed as inhibition of biofilm formation at 10 ug/ml incubated for 5 hrs by confocal microscopic analysis; assay type: functional, organism-based; conditions: dose 10.0 µg/ml
# Cell membrane [17] = assay: Induction of cytoplasmic membrane depolarization in methicilin-resistant Staphylococcus aureus 21455 at 8 times MIC by DiSC3(5) dye-based fluorescence assay
# [18] = test system: Staphylococcus saprophyticus; assay: Antibacterial activity against Staphylococcus saprophyticus ATCC 15305 assessed as inhibition of bacterial growth; assay type: functional
# Staphylococcus aureus [19] = assay: Antibacterial activity against Staphylococcus aureus 4299 assessed as inhibition of bacterial growth; assay type: functional
# Pseudomonas aeruginosa [20] = assay: Antibacterial activity against Pseudomonas aeruginosa ATCC 9027 assessed as inhibition of bacterial growth; assay type: functional
# [21] = test system: Staphylococcus saprophyticus; assay: Antibacterial activity against Staphylococcus saprophyticus ATCC 49453 assessed as inhibition of bacterial growth; assay type: functional
# Staphylococcus aureus [22] = assay: Bactericidal activity against methicilin-resistant Staphylococcus aureus 21455 assessed as reduction in bacterial colony forming unit at 16 times MIC observed after 8 hrs by time-kill kinetic assay; assay type: functional, organism-based
# Staphylococcus aureus [23] = assay: Antibacterial activity against methicilin-resistant Staphylococcus aureus 42412 assessed as inhibition of bacterial growth; assay type: functional
# Staphylococcus aureus [24] = assay: Antibacterial activity against Staphylococcus aureus 15981 assessed as inhibition of biofilm formation at 10 ug/ml incubated for 5 hrs by confocal microscopic analysis; assay type: functional, organism-based; conditions: dose 10.0 µg/ml
# Staphylococcus aureus [25] = assay: Antibacterial activity against Staphylococcus aureus 29213 assessed as inhibition of bacterial growth; assay type: functional
# Staphylococcus aureus [26] = assay: Bactericidal activity against methicilin-resistant Staphylococcus aureus 21455 assessed as reduction in bacterial colony forming unit at 16 times MIC observed after 24 hrs by time-kill kinetic assay; assay type: functional, organism-based
# Staphylococcus aureus [27] = assay: Bactericidal activity against methicilin-resistant Staphylococcus aureus 21455 assessed as reduction in bacterial growth by measuring minimum bactericidal concentration at 4 times MIC by time-kill kinetic assay; assay type: functional
# Staphylococcus aureus [28] = assay: Bactericidal activity against methicilin-resistant Staphylococcus aureus 21455 assessed as reduction in bacterial colony forming unit at 16 times MIC observed after 2 hrs by time-kill kinetic assay; assay type: functional
# Staphylococcus aureus [29] = assay: Bactericidal activity against methicilin-resistant Staphylococcus aureus 21455 assessed as reduction in bacterial viability at 2 times MIC observed after 4 hrs by time-kill kinetic assay relative to control; assay type: functional
# [30] = Hemolytic activity in rabbit erythrocytes assessed as hemolysis at 256 microg/ml relative to control; assay type: toxicity, cell-based, Oryctolagus cuniculus, Erythrocyte; conditions: at 256 µg/mL, read-out: Activity
# [31] = Hemolytic activity in rabbit erythrocytes assessed as hemolysis at 64 microg/ml relative to control; assay type: toxicity, cell-based, Oryctolagus cuniculus, Erythrocyte; conditions: at 64 µg/mL, read-out: Activity
# Staphylococcus aureus [32] = assay: Bactericidal activity against methicilin-resistant Staphylococcus aureus 21455 assessed as reduction in bacterial growth by measuring minimum bactericidal concentration at 16 times MIC by time-kill kinetic assay; assay type: functional
# Staphylococcus aureus [33] = assay: Bactericidal activity against methicilin-resistant Staphylococcus aureus 21455 assessed as inhibition of bacterial growth at >=8 times MIC by time-kill kinetic assay; assay type: functional, organism-based
Structure (SMILES),MIC [1] [µg/mL],MIC (Bacillus cereus) [µg/mL],MIC (Bacillus subtilis) [µg/mL],MIC (Staphylococcus aureus [2]) [µg/mL],MIC [3] [µg/mL],MIC (Enterococcus faecium [5]) [µg/mL],Activity (Cell membrane [6]),MIC (Enterococcus faecium [7]) [µg/mL],Activity (Cell membrane [8]),MIC (Staphylococcus aureus [9]) [µg/mL],MIC (Staphylococcus aureus [10]) [µg/mL],hemolysis at 512 microg/ml [11] [%],Activity (Staphylococcus aureus [12]),MIC [13] [µg/mL],MIC (Enterococcus faecium [14]) [µg/mL],MIC [18] [µg/mL],MIC (Staphylococcus aureus [19]) [µg/mL],MIC [21] [µg/mL],MIC (Staphylococcus aureus [23]) [µg/mL],MIC (Staphylococcus aureus [25]) [µg/mL],other results
CC[C@H](C)[C@H](NC(=O)[C@@H](Cc1ccccc1)NC)C(=O)N[C@@H](CO)C(=O)N[C@H](CCCNC(=N)N)C(=O)N[C@@H](C(=O)N[C@H](C(=O)N[C@@H](CO)C(=O)N[C@H]1C(=O)N[C@@H](C)C(=O)N[C@@H](C2CCCCC2)C(=O)N[C@@H]([C@@H](C)CC)C(=O)O[C@H]1C)[C@@H](C)CC)[C@@H](C)CC,0.063,0.063,0.063,0.063,0.063,0.063,inactive,0.063,Active,0.25,0.063,≤ 2,Dose-Dependent Effect,0.063,0.063,< 0.063,0.063,< 0.063,0.063,0.063,MIC (Pseudomonas aeruginosa [4]): > 32 µg/mL; Activity (Cell membrane [15]): Active; Activity [16]: Active; Activity (Cell membrane [17]): inactive; MIC (Pseudomonas aeruginosa [20]): > 32 µg/mL; Activity (Staphylococcus aureus [22]): Active; Activity (Staphylococcus aureus [24]): Active; Activity (Staphylococcus aureus [26]): Active
CCCC[C@@H]1NC(=O)[C@H](C)NC(=O)[C@H](NC(=O)[C@H](CO)NC(=O)[C@@H](NC(=O)[C@H](NC(=O)[C@@H](CCC(N)=O)NC(=O)[C@H](CO)NC(=O)[C@@H](NC(=O)[C@@H](Cc2ccccc2)NC)[C@@H](C)CC)[C@@H](C)CC)[C@@H](C)CC)[C@H](C)OC(=O)[C@H]([C@@H](C)CC)NC1=O,0.063,0.063,0.063,0.5,0.063,1,,0.5,,0.25,0.5,≤ 2,Dose-Dependent Effect,0.063,1,0.063,0.25,0.063,0.125,0.063,Activity [16]: Active; MBC (Staphylococcus aureus [27]): 1 µg/mL; Activity (Staphylococcus aureus [24]): Active
CC[C@H](C)[C@H](NC(=O)[C@@H](Cc1ccccc1)NC)C(=O)N[C@@H](CCCNC(=N)N)C(=O)N[C@H](CCCNC(=N)N)C(=O)N[C@@H](C(=O)N[C@H](C(=O)N[C@@H](CO)C(=O)N[C@H]1C(=O)N[C@@H](C)C(=O)N[C@@H](C2CCCCC2)C(=O)N[C@@H]([C@@H](C)CC)C(=O)O[C@H]1C)[C@@H](C)CC)[C@@H](C)CC,0.063,2,0.063,0.25,< 0.063,2,Active,2,Active,0.25,0.5,,Dose-Dependent Effect,0.063,1,< 0.063,0.125,0.125,0.063,0.063,Activity (Staphylococcus aureus [28]): >=3 log10CFU; Activity (Staphylococcus aureus [29]): >=99.9%; hemolysis at 256 microg/ml [30]: 18%; Activity (Cell membrane [15]): Active; hemolysis at 64 microg/ml [31]: 3.7%; Activity [16]: Active; Activity (Cell membrane [17]): Active; Activity (Staphylococcus aureus [24]): Active
CC[C@H](C)[C@H](NC(=O)[C@@H](Cc1ccccc1)NC)C(=O)N[C@@H](CO)C(=O)N[C@H](CCC(N)=O)C(=O)N[C@@H](C(=O)N[C@H](C(=O)N[C@@H](CO)C(=O)N[C@H]1C(=O)N[C@@H](C)C(=O)N[C@@H](C2CCCCC2)C(=O)N[C@@H]([C@@H](C)CC)C(=O)O[C@H]1C)[C@@H](C)CC)[C@@H](C)CC,0.063,0.063,0.063,0.125,0.063,0.125,inactive,0.063,10.6%,0.125,0.063,≤ 2,,0.063,0.25,< 0.063,0.063,< 0.063,0.063,0.063,MBC (Staphylococcus aureus [32]): 2 µg/mL; Activity (Cell membrane [15]): 8.8%; Activity (Staphylococcus aureus [33]): Active; Activity (Cell membrane [17]): inactive; Activity (Staphylococcus aureus [22]): Active; Activity (Staphylococcus aureus [26]): Active
